Starred links: 1 amine or outer side, 2 acyl side, 3 side chain; linkers in the order of their positions; H or OH if unused. Non-standard residues stand in square brackets, D forms with d. Residues, ends and D or L forms follow the SMILES beside them. Groups on a side chain read outwards from the residue. *: point of attachment. γGlu = O=C(O)[C@H](CCC(=O)[*:2])N[*:1]; Stearoyl = CCCCCCCCCCCCCCCCCC(=O)*; Palmitoyl = CCCCCCCCCCCCCCCC(=O)*; αMeF = C[C@](N)(Cc1ccccc1)C(=O)O; PEG2 = NCCOCCOCCC(=O)O; Aib = CC(C)(N)C(=O)O
Experiments:
[1] = biological target: human GLP-1 receptor (hGLP-1R) (Homo sapiens, UniProt P43220); assay: cAMP production (HTRF) in CHO cells expressing hGLP-1R; type: cell-based; parameters: expressed in transfected cells; details: Table 6; % GLP-1R activity relative to GLP-1 / % GlucR activity relative to glucagon
Method in brief: (§1)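 Read-out: HTRF cAMP (anti-cAMP cryptate donor, cAMP-d2 acceptor in conjugate/lysis buffer), converted to % Delta F and fitted by 4-parameter logistic for EC50. Cell densities were 1×10^5 cells/mL (hGLP-1R) or 2×10^5 cells/mL (hGCGR). Stimulation lasted 30 min at room temperature.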

[2] = biological target: human glucagon receptor (hGCGR) (Homo sapiens, UniProt P47871); assay: cAMP production (HTRF) in CHO cells expressing hGCGR; type: cell-based; parameters: expressed in transfected cells; details: Table 6, peptides modified at position 17; cAMP in CHO hGCGR cells; geometric mean; read-out: hGluc-R EC50
Method in brief: as §1

human glucagon receptor (hGCGR), sequence (P47871 26-477): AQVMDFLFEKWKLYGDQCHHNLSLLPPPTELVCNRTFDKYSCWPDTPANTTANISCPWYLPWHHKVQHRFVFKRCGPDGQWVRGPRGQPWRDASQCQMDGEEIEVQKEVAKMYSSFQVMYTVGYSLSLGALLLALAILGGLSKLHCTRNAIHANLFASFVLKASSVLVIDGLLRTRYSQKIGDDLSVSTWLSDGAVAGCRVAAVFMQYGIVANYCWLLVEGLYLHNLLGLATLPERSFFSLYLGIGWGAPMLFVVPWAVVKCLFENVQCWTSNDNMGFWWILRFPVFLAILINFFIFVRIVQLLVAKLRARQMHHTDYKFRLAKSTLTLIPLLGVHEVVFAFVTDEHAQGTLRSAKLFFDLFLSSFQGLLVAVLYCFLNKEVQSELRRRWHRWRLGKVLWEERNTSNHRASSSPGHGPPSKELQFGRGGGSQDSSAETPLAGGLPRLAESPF
human GLP-1 receptor (hGLP-1R), sequence (P43220 24-463): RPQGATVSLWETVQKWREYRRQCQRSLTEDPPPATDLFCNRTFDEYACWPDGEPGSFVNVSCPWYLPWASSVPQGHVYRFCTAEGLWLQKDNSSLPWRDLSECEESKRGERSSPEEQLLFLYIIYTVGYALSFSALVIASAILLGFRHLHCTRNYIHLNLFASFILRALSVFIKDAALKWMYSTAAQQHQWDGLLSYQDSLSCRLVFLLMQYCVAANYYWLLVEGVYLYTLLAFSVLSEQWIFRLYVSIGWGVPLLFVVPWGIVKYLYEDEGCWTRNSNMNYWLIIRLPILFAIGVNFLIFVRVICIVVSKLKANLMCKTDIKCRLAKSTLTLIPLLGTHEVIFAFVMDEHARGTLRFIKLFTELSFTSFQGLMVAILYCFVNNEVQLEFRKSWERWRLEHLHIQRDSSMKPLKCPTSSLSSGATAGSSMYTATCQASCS

% Relative Potency Ratio [1]	EC50 [2] [pM]	SMILES
23.0	6.68	CCCCCCCCCCCCCCCC(=O)N[C@@H](CCC(=O)N[C@@H](CCC(=O)NCCOCCOCCC(=O)NCCOCCOCCC(=O)NCCCC[C@H](NC(=O)[C@H](CO)NC(=O)[C@H](CC(=O)O)NC(=O)[C@H](CC(C)C)NC(=O)[C@@H](NC(=O)[C@H](CCCCN)NC(=O)[C@H](CO)NC(=O)[C@@H](NC(=O)[C@H](CC(=O)O)NC(=O)[C@H](CO)NC(=O)[C@@H](NC(=O)[C@](C)(Cc1ccccc1)NC(=O)[C@H](CO)NC(=O)CNC(=O)[C@H](CCC(N)=O)NC(=O)C(C)(C)NC(=O)[C@@H](N)Cc1c[nH]cn1)[C@@H](C)O)C(C)C)[C@@H](C)CC)C(=O)N[C@@H](C)C(=O)N[C@@H](C)C(=O)N[C@@H](CCC(N)=O)C(=O)N[C@@H](CC(=O)O)C(=O)N[C@@](C)(Cc1ccccc1)C(=O)N[C@H](C(=O)N[C@@H](CCC(N)=O)C(=O)NC(C)(C)C(=O)N[C@H](C(=O)N[C@H](C(=O)N[C@@H](CC(N)=O)C(=O)N[C@H](C(N)=O)[C@@H](C)O)[C@@H](C)CC)[C@@H](C)CC)C(C)C)C(=O)O)C(=O)O [Peptide 125] (H-H[Aib]QGS[αMeF]TSDVSKILDSK([PEG2-PEG2-γGlu-γGlu-Palmitoyl])AAQD[αMeF]VQ[Aib]IINT-NH2; N-terminus assumed)
25.1	12.6	CCCCCCCCCCCCCCCCCC(=O)N[C@@H](CCC(=O)NCCOCCOCCC(=O)NCCOCCOCCC(=O)NCCCC[C@H](NC(=O)[C@H](CO)NC(=O)[C@H](CC(=O)O)NC(=O)[C@H](CC(C)C)NC(=O)[C@@H](NC(=O)[C@H](CCCCN)NC(=O)[C@H](CO)NC(=O)[C@@H](NC(=O)[C@H](CC(=O)O)NC(=O)[C@H](CO)NC(=O)[C@@H](NC(=O)[C@](C)(Cc1ccccc1)NC(=O)[C@H](CO)NC(=O)CNC(=O)[C@H](CCC(N)=O)NC(=O)C(C)(C)NC(=O)[C@@H](N)Cc1c[nH]cn1)[C@@H](C)O)C(C)C)[C@@H](C)CC)C(=O)N[C@@H](C)C(=O)N[C@@H](C)C(=O)N[C@@H](CCC(N)=O)C(=O)N[C@@H](CC(=O)O)C(=O)N[C@@](C)(Cc1ccccc1)C(=O)N[C@H](C(=O)N[C@@H](CCC(N)=O)C(=O)NC(C)(C)C(=O)N[C@H](C(=O)N[C@H](C(=O)N[C@@H](CC(N)=O)C(=O)N[C@H](C(N)=O)[C@@H](C)O)[C@@H](C)CC)[C@@H](C)CC)C(C)C)C(=O)O [Peptide 127] (H-H[Aib]QGS[αMeF]TSDVSKILDSK([PEG2-PEG2-γGlu-Stearoyl])AAQD[αMeF]VQ[Aib]IINT-NH2; N-terminus assumed)
11.8	4.69	CCCCCCCCCCCCCCCC(=O)N[C@@H](CCC(=O)NCCOCCOCCC(=O)NCCOCCOCCC(=O)NCCCC[C@H](NC(=O)[C@H](CO)NC(=O)[C@H](CC(=O)O)NC(=O)[C@H](CC(C)C)NC(=O)[C@@H](NC(=O)[C@H](CCCCN)NC(=O)[C@H](CO)NC(=O)[C@@H](NC(=O)[C@H](CC(=O)O)NC(=O)[C@H](CO)NC(=O)[C@@H](NC(=O)[C@](C)(Cc1ccccc1)NC(=O)[C@H](CO)NC(=O)CNC(=O)[C@H](CCC(N)=O)NC(=O)C(C)(C)NC(=O)[C@@H](N)Cc1c[nH]cn1)[C@@H](C)O)C(C)C)[C@@H](C)CC)C(=O)N[C@@H](C)C(=O)N[C@@H](C)C(=O)N[C@@H](CCC(N)=O)C(=O)N[C@@H](CC(=O)O)C(=O)N[C@@](C)(Cc1ccccc1)C(=O)N[C@H](C(=O)N[C@@H](CCC(N)=O)C(=O)NC(C)(C)C(=O)N[C@H](C(=O)N[C@H](C(=O)N[C@@H](CC(N)=O)C(=O)N[C@H](C(N)=O)[C@@H](C)O)[C@@H](C)CC)[C@@H](C)CC)C(C)C)C(=O)O [Peptide 128] (H-H[Aib]QGS[αMeF]TSDVSKILDSK([PEG2-PEG2-γGlu-Palmitoyl])AAQD[αMeF]VQ[Aib]IINT-NH2; N-terminus assumed)

From US20250353891A1 (MEDIMMUNE LIMITED, priority 2022, published 2025)
